# Test results from patent publication US20100009920A1, “TTK AS TUMOR MARKER AND THERAPEUTIC TARGET FOR LUNG CANCER” (priority 2006, published 2010).
# Entries after “also recorded” stand apart in the source; their conditions may differ.
# What was measured:
# LC319 and A549 cells = test: MTT and colony-formation assays after transfection of siRNA-expression plasmids; format: cell-based, human
# Experimental: (§1) A vector-based RNA interference (RNAi) system, psiH1BX3.0, had previously established to direct the synthesis of siRNAs in mammalian cells (Suzuki et al., 2003, 2005; Kato et al, 2005; Furukawa et al, 2005). 10 micro-g of siRNA-expression vector were transfected into NSCLC cell lines LC319 and A549 both of which over-expressed TTK endogenously, using 30 micro-1 of Lipofectamine 2000 (Invitrogen). The transfected cells were cultured for five days in the presence of appropriate concentrations of geneticin (G418), after which cell numbers and viability were measured by Giemsa staining and triplicate MTT assays. The target sequences of the synthetic oligonucleotides for RNAi were as follows: control 1 (Luciferase: Photinus pyralis luciferase gene), 5′-CGTACGCGGAATACTTCGA-3′ (SEQ ID NO: 9); control 2 (Scramble: chloroplast Euglena gracilis gene coding for 5S and 16S rRNAs),
# TTK [1] = test: Semiquantitative RT-PCR of TTK expression after transfection of siRNA-expression plasmids; format: cell-based, human; conditions: LC319 and A549 cells, versus control siRNAs (LUC, SCR)
# Experimental: Total RNA was extracted from cultured cells and clinical tissues using Trizol reagent (Life Technologies, Inc.) according to the manufacturer's protocol. Extracted RNAs and normal human tissue poly(A) RNAs were treated with DNase I (Nippon Gene) and were reverse-transcribed using oligo(dT)20 primer and SuperScript II reverse transcriptase (Invitrogen). Semiquantitative RT-PCR experiments were carried out with the following synthesized gene-specific primers or with beta-actin (ACTB)-specific primers as an internal control: TTK,
# as §1, with “The target sequences of the synthetic oligonucleotides for RNAi were as follows: control 1 (Luciferase: Photinus pyralis luciferase gene), 5′-CGTACGCGGAATACTTCGA-3′ (SEQ ID NO: 9); control 2 (Scramble: chloroplast Euglena gracilis gene coding for 5S and 16S rRNAs),” left out
# [2] = test system: catalytically-active recombinant GST-tagged human EGFR (active-rhEGFR); test: In vitro kinase assay, autophosphorylation of active-rhEGFR (western blot with anti-phospho-tyrosine antibodies); format: biochemical; conditions: in the presence of ATP, no recombinant TTK
# TTK [3] = test: In vitro kinase assay, phosphorylation of active-rhEGFR by recombinant TTK; format: biochemical, human; conditions: active-rhEGFR pre-treated with inhibitor, recombinant TTK present
# Excerpt: The full-length cDNA of TTK was subcloned into pFastBac HT vector. The recombinant shuttle vector was transformed into the baculovirus genome (bacmid DNA) in DH10Bac competent cells (Invitrogen) by using Tn7 site-specific transposition according to the minufacture's instructions for the Bac-to-Bac expression system (Invitrogen). The recombinant bacmid DNA was isolated, purified, transfected into Sf9 cells (Invitrogen) (recombinant baculovirus), and used for next infection. Log-phase Sf-9 cells were infected with recombinant baculovirus at a multiplicity of infection (MOI) of 1, and then infected Sf-9 cells were grown in suspension at 27° C. for 72 hours. Extracts of Sf-9 cells were collected and the His fusion proteins were purified using HiTrap HP column (GE Healthcare Bio-sciences) using standard protocols. […] TTK-KD was cloned into pGEX6T vector (GE Healthcare Bio-sciences). GST fusion protein was expressed in E. coli stain BL21 and purified by Glutathione Sepharose 4B (GE Healthcare Bio-sciences) using standard protocols. […]
# The EGFR tyrosine phosphorylation sites were further evaluated by TTK using GST-tagged proteins containing various cytoplasmic region of EGFR as substrates (EGFR-DEL1, −DEL2, and −DEL3; FIG. 4e). […]
# A549 cells [4] = test: Microscopic observation of cell morphology (phase contrast images); format: cell-based, human; conditions: non-treated cells as control
# Experimental: (§2) The oligo-siRNAs (Dharmacon, Inc., Lafayette, Colo.) ([…]) were transfected into appropriate lung-cancer cell lines using 30 micro-1 of Lipofectamine 2000 (Invitrogen, Carlsbad, Calif.) following the manufacturer's protocol. The ribonucleotide sequences corresponding to following sequences were used as the oligo-siRNA.
# The endogenous association between TTK and EGFR in lung cancer cells was also investigated by immunoprecipitaion experiment using extracts from A549 cells, and the interaction between these two proteins regardless the EGF-stimulation was detected (FIG. 4b). To further examine the relevance of TTK to EGFR signaling, TTK or EGFR function in A549 cells were suppressed and cell morphology was microscopically observed.
# HEK293 cells [5] = test: MTT assay of TTK- or mock-stable transfectants of HEK293 transfected with RNAi-EGFR; format: cell-based
# Experimental: as §2
# TTK-expressing stable transfectants were established according to a standard protocol. Using FuGENE 6 Transfection Reagent (Roche Diagnostics), we transfected HEK293 and NIH3T3 cells with plasmids expressing TTK (pCAGGS-n3FH-TTK) or mock plasmids (pCAGGS-n3FH). Transfected cells were cultured in DMEM containing 10% FCS and G418, then individual colonies were trypsinized and screened for stable transfectants by a limiting-dilution assay. Expression of TTK was determined in each clone by RT-PCR, western blotting, and immunostaining. HEK293 or NIH3T3 transfectants that stably expressed TTK were seeded onto 6-well plates (5×10^4 cells/well), and maintained in medium containing 10% FCS and 0.4 mg/ml G418 for 7 days. At each time point, cell proliferation was evaluated by the MTT assay using Cell Counting Kits (WAKO). All experiments were done in triplicate.
# HEK293 cells [6] = test: Matrigel invasion assay of TTK- or mock-stable transfectants of HEK293 transfected with RNAi-EGFR; format: cell-based
# A549 cells [7] = test: MTT assay of A549 cells treated with cell-permeable 11R-EGFR peptides; format: cell-based, human; conditions: A549 cells, 2.5, 5 and 7.5 micro-mol/L, 5 days
# Experimental: 17˜31 amino acid peptide sequences corresponding to a part of EGFR protein that contained possible TTK-interacting region were covalently linked at its NH2 terminus to a membrane transducing 11 poly-arginine sequence (Hayama, S, et al. Cancer Res. 66, 10339-48 (2006), Futaki S, et al. J Biol. Chem. 276, 5836-5840 (2001)). Three cell-permeable peptides were synthesized:
# Peptides were purified by preparative reverse-phase high-pressure liquid chromatography. A549 cells were incubated with the 11R peptides at the concentration of 2.5, 5, and 7.5 micro-mol/L for 5 days. The medium was exchanged at every 48 hours at the appropriate concentrations of each peptide and the viability of cells was evaluated by MTT assay at 5 days after the treatment.
molecule,measurement,setting,value
5′-ACAGTGTTCCGCTAAGTGA-3′ [si-TTK-1],cell viability (MTT assay),LC319 and A549 cells; versus two control siRNAs,reduced significantly
same,colony numbers (colony-formation assay),LC319 and A549 cells; versus two control siRNAs,reduced significantly
same,amount of TTK transcript,TTK [1],significantly decreased
5′-ATCACGGACCAGTACATCT-3′ [si-TTK-2],growth-suppressive effect,LC319 and A549 cells,modest growth-suppressive effect
same,amount of TTK transcript,TTK [1],weaker reduction
"COc1cc2ncnc(Nc3cccc(Cl)c3)c2cc1OC [AG1478, tryphostin 4-(3-chloroanilino)-6,7-dimethoxyquinazoline]",autophosphorylation of active-rhEGFR on tyrosine,[2],inhibited
same,autophosphorylation of active-rhEGFR on tyrosine,[2]; listed as AG1378,not detected
same,phosphorylation of active-rhEGFR by TTK,TTK [3],not inhibited
same,phosphorylation of active-rhEGFR by TTK,TTK [3]; listed as AG1378,detected in the presence of recombinant TTK
same,cell morphology,A549 cells [4],became much larger with multiple nuclei
"GTAACAAGCTCACGCAGTTTT (listed as DNA, chemistry not given here) [RNAi-EGFR (oligo)]",TTK-induced cell proliferation,"HEK293 cells [5]; HEK293 transfectants stably expressing TTK, P=0.0032",significantly reduced
same,proliferation of HEK293 control cells,"HEK293 cells [5]; control cells transfected with mock vector, P=0.2439",scarcely reduced
same,TTK-induced cell invasion through Matrigel,"HEK293 cells [6]; TTK-transfected HEK293 cells, P<0.0001",reduced to near the basal level
same,Invasion of the control cells through Matrigel,HEK293 cells [6]; mock-transfected HEK293 cells,slightly reduced
same,cell morphology,A549 cells [4],became much larger with multiple nuclei
RRRRRRRRRRR-GGG-DVYMIMVKCWMIDADSRPK (An artificially synthesised dominant negative peptide) [11R-EGFR918-936],cell viability (MTT assay),A549 cells [7],significant decreases
"RRRRRRRRRRR-GGG-EFMAELLRYFRPQSKRDII (RRRRRRRRRRRGGGEFMAELLRYFRPQSKRDII) [scramble peptides, Scramble peptides derived from 11R-EGFR937-955, synthesized as a control, reference compound]",cell viability (MTT assay),A549 cells [7],no growth-suppressive effect
RRRRRRRRRRR-GGG-FRELIIEFSKMARDPQRYL (An artificially synthesised dominant negative peptide) [11R-EGFR937-955],cell viability (MTT assay),A549 cells [7],most effective; also recorded: significant decreases
RRRRRRRRRRR-GGG-ISSILEKGERLPQPPICTI (An artificially synthesised dominant negative peptide) [11R-EGFR899-917],cell viability (MTT assay),A549 cells [7],significant decreases
